Where a name gives a salt, the structure may show the parent alone.

In the experiment the target is Steroidogenic factor 1 (Homo sapiens, UniProt Q13285). Put plainly: SF-1 inhibitors in Gal4 reporter counter-screen, dose response, counter-screen for RORA inhibitor project, cell-based, CHO-K1, Gal4-SF-1 LBD, luciferase luminescence (AID 611). For orientation: A counterscreen serves to expose hits that act by an unwanted route or on another target.
The mark [1] stands for this setting: inactive by the depositor's call.

Steroidogenic factor 1, sequence (Q13285 whole entry, the tested form may be a part): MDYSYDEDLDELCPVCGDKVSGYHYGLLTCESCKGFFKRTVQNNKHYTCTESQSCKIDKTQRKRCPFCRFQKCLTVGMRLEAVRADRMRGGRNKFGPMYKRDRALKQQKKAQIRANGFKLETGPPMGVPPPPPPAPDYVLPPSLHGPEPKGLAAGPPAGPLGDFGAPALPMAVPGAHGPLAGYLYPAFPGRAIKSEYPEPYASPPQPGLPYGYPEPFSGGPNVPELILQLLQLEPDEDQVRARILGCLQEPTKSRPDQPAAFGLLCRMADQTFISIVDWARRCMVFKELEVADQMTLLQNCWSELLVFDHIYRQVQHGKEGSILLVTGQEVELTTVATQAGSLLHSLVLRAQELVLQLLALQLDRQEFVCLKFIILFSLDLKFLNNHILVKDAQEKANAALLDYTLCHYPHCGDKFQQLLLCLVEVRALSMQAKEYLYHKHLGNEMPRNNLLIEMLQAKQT

What is called IC50 is the concentration that gives 50% inhibition. On to `COC(=O)C1C(=CN2CCCc3ccccc32)NC(=O)NC1c1ccc(F)cc1` (centres undefined) [6-(3,4-dihydro-2H-quinolin-1-ylmethyl)-4-(4-fluorophenyl)-2-keto-3,4-dihydro-1H-pyrimidine-5-carboxylic acid methyl ester], for which the IC50 was found to be 6.66 µM.
On the same count and under the same terms, the same measure for `CCOc1cc(C(=O)CSc2nnc(CNc3ccc(Cl)cc3)o2)ccc1NC(=O)CC` [MLS000032332]: 7.64 µM.
Compound `Cc1ccc(F)cc1NC(=O)Cc1nn(C)c(=O)c2ccccc12` [MLS000047013] registered an IC50 under setting [1] of 12.2 µM.
In turn, `c1ccc(-c2cn3c4c(sc3n2)CCCC4)cc1` [2-phenyl-5,6,7,8-tetrahydroimidazo[2,1-b][1,3]benzothiazole] had an IC50 of 4.27 µM.
Same read-out and setting: the same measure for `Cc1ccc(-c2nc(-c3ccccc3)no2)c(Cl)c1` [5-(2-chloranyl-4-methyl-phenyl)-3-phenyl-1,2,4-oxadiazole]: 3.34 µM; for `O=C(CC=Nc1ccccn1)c1ccc(Cl)cc1` [(Z)-1-(4-chlorophenyl)-3-(2-pyridinylamino)-2-propen-1-one]: 4.88 µM; for `CN=c1scc(C)n1N=Cc1ccc(O)cc1O` [(4E)-4-[[(4-methyl-2-methylimino-1,3-thiazol-3-yl)amino]methylidene]-3-oxidanyl-cyclohexa-2,5-dien-1-one]: 1.94 µM.
The same measure, in the same setting: the figure for `CC(=O)Nc1ccc(SCC(=O)c2cc(C)n(Cc3cccs3)c2C)cc1` [MLS000058142] is 4.41 µM; for `Fc1ccc(-c2nnc(NC3=NCCCCC3)o2)cc1` [5-(4-fluorophenyl)-N-(3,4,5,6-tetrahydro-2H-azepin-7-yl)-1,3,4-oxadiazol-2-amine] it is above 3.67 µM.
`COc1cccc(Cn2c(NCc3ccco3)nc3c2c(=O)n(C)c(=O)n3C)c1` [8-(2-furanylmethylamino)-7-[(3-methoxyphenyl)methyl]-1,3-dimethylpurine-2,6-dione] displayed an IC50 under setting [1] of 10.7 µM.
On the same count and under the same terms, the figure for `Cc1ccc(S(=O)(=O)NCc2ccncc2)cc1` [4-Methyl-N-pyridin-4-ylmethyl-benzenesulfonamide] is 11.6 µM.
In the case of `COc1cccc2c1C(=O)c1c(O)c3c(c(O)c1C2=O)C[C@@](O)(C(=O)CO)C[C@@H]3O[C@H]1C[C@H](N)[C@H](O)[C@H](C)O1` [MLS000028393], it took 1.18 µM to reach half-maximal inhibition (IC50).
For `COc1cccc(OC)c1C1=NCC(=O)Nc2c1oc1ccc(Br)cc21` [9-bromanyl-5-(2,6-dimethoxyphenyl)-1,3-dihydro-[1]benzofuro[3,2-e][1,4]diazepin-2-one], under setting [1], 15.4 µM corresponded to half-maximal inhibition (IC50).
The same measure, in the same setting: the same measure for `O=C(O)CCSc1nc2ccccc2s1` [3-(Benzothiazol-2-ylsulfanyl)-propionic acid]: 19.1 µM.
In turn, `c1coc(CNc2ncnc3ccccc23)c1` [2-furfuryl(quinazolin-4-yl)amine;hydrochloride] yielded an IC50 of 17.3 µM.
Same read-out and setting: the same measure for `CCOc1ccc(-c2cc(CCCC(=O)NCCc3ccc(OC)c(OC)c3OC)no2)cc1` [4-(5-p-phenetylisoxazol-3-yl)-N-[2-(2,3,4-trimethoxyphenyl)ethyl]butyramide]: 6.37 µM; for `c1ccc(-n2ncc3c(N4CCCCC4)ncnc32)cc1` [1-phenyl-4-(1-piperidinyl)pyrazolo[3,4-d]pyrimidine]: 4.47 µM; for `Clc1ccc(-c2nnc(NC3=NCCCCC3)o2)cc1`: above 3.67 µM.
On the same count and under the same terms, the figure for `Cn1nc(CC(=O)Nc2ccc3c(c2)OCCO3)c2ccccc2c1=O` [MLS000047020] is 6.3 µM.
As to `COc1cccc2c1C(=O)c1c(O)c3c(c(O)c1C2=O)C[C@@](O)(C(C)=O)C[C@@H]3O[C@H]1C[C@H](N)[C@H](O)[C@H](C)O1` [(7S,9S)-9-acetyl-7-[(2R,4S,5S,6S)-4-amino-5-hydroxy-6-methyloxan-2-yl]oxy-6,9,11-trihydroxy-4-methoxy-8,10-dihydro-7H-tetracene-5,12-dione;hydrochloride], the IC50 was 0.409 µM.
On the same count and under the same terms, the figure for `COc1ccc(O)c(C(=O)CC(=O)c2ccc(F)cc2)c1` [1-(4-fluorophenyl)-3-(2-hydroxy-5-methoxy-phenyl)propane-1,3-dione] is above 11 µM; for `CC1CCN(c2nc3ccc(C(=O)O)cc3s2)CC1` [2-(4-methyl-1-piperidinyl)-1,3-benzothiazole-6-carboxylic acid] it is 0.329 µM.
In turn, `Cc1ccccc1NC(=O)N1CCCC(c2nc(-c3ccc(C(C)C)cc3)no2)C1` (centres undefined) [3-[3-(4-Isopropyl-phenyl)-[1,2,4]oxadiazol-5-yl]-piperidine-1-carboxylic acid o-tolylamide] showed an IC50 under setting [1] of 12.4 µM.
Compound `CCCCOC(=O)c1[nH]c2c(c1C)C(=O)CC(c1cc(OC)c(OC)c(OC)c1)C2` (centres undefined) showed an IC50 of 6.24 µM.
Consider `Oc1c(CN2CCOCC2)cc(COCc2ccccc2)c2cccnc12` [5-(benzoxymethyl)-7-(morpholinomethyl)quinolin-8-ol], for which the IC50 is 5.97 µM.
Same read-out and setting: the figure for `O=S(=O)(NCc1ccncc1)c1ccc(Br)s1` [5-bromanyl-N-(pyridin-4-ylmethyl)thiophene-2-sulfonamide] is 3.74 µM; for `Cn1c(-c2ccccc2)cc2c3no[n+]([O-])c3ccc21` [6-methyl-3-oxidanidyl-7-phenyl-pyrrolo[2,3-g][2,1,3]benzoxadiazol-3-ium] it is 6.06 µM.
Still for that read-out and setting: the figure for `c1ccc2nc(-c3nc4ccccc4o3)ccc2c1` [2-(1,3-benzoxazol-2-yl)quinoline] is 5.39 µM; for `c1ccc2c(c1)CCN(c1nc3cc4c(cc3s1)OCCO4)C2` [2-(3,4-dihydro-1H-isoquinolin-2-yl)-6,7-dihydro-[1,4]dioxino[2,3-f][1,3]benzothiazole] it is 4.35 µM.
Still for that read-out and setting: the figure for `CCc1ccc(-c2cn3nc(C)c(C)nc3n2)cc1` [6-(4-ethylphenyl)-2,3-dimethyl-imidazo[1,2-b][1,2,4]triazine] is 1.73 µM.
`Cc1ccc(-c2csc3ncnc(Sc4nnc(CN5CCCCCC5=O)o4)c23)cc1` [1-[[5-[5-(4-methylphenyl)thieno[2,3-d]pyrimidin-4-yl]sulfanyl-1,3,4-oxadiazol-2-yl]methyl]azepan-2-one] displayed an IC50 of 7.12 µM.
Take `CCCOc1ccccc1C1CC(=O)Nc2cc3c(cc21)OCCO3` (centres undefined) [9-(2-propoxyphenyl)-2,3,8,9-tetrahydro[1,4]dioxino[2,3-g]quinolin-7(6H)-one]: the IC50 under setting [1] was found to be 10.6 µM.
The compound `c1ccc2c(c1)CCN(c1ncnc3c1[nH]c1ccccc13)C2` [SMR000039631] displayed an IC50 of 2.99 µM.
Compound `COc1ccc(C(=O)NC(=O)Nc2cc(C)ccn2)cc1` [4-methoxy-N-[(4-methyl-2-pyridyl)carbamoyl]benzamide] showed an IC50 of 3.29 µM.
On the same count and under the same terms, the same measure for `Cc1cc(N2CCN(c3nc4ccccc4s3)CC2)n2ncnc2n1` [2-[4-(5-methyl-[1,2,4]triazolo[1,5-a]pyrimidin-7-yl)-1-piperazinyl]-1,3-benzothiazole]: 9.02 µM; for `Clc1ccc(OCCN2CCN(c3ncnc4sccc34)CC2)cc1` [4-[4-[2-(4-chloranylphenoxy)ethyl]piperazin-1-yl]thieno[2,3-d]pyrimidine]: 1.44 µM.
The same measure, in the same setting: the figure for `Cc1oc(-c2ccc3c(c2)OCCO3)cc1C(=O)O` [5-(2,3-dihydro-1,4-benzodioxin-6-yl)-2-methyl-3-furancarboxylic acid] is 3.06 µM.
For `CC(=O)N1CCc2cc(S(=O)(=O)NCCC3=CCCCC3)ccc21` [1-acetyl-N-(2-cyclohex-1-en-1-ylethyl)indoline-5-sulfonamide], under setting [1], half-maximal inhibition (IC50) was put at 17.6 µM.
`Cc1ccc(NC(=O)Cc2nn(C)c(=O)c3ccccc23)cc1F` [MLS000047015]: half-maximal inhibition (IC50) was put at 3.9 µM.
Still for that read-out and setting: the figure for `CCOC(=O)C1CCN(c2ncnc3c2cnn3-c2ccc(Cl)cc2)CC1` [1-[1-(4-chlorophenyl)-4-pyrazolo[3,4-d]pyrimidinyl]-4-piperidinecarboxylic acid ethyl ester] is 5.75 µM.
On to `Cc1ccc(-c2nc3nc4ccccc4nc3n2Cc2ccco2)cc1` [3-(2-furanylmethyl)-2-(4-methylphenyl)imidazo[4,5-b]quinoxaline], for which the IC50 was above 33 µM.
Turning to `c1c2c(cc3sc(N4CCOCC4)nc13)OCCO2` [2-(4-morpholinyl)-6,7-dihydro-[1,4]dioxino[2,3-f][1,3]benzothiazole], the IC50 was above 3.67 µM.
`N#CC(C#N)=c1ccc2c(c1)NC1(CCCCC1)N=2` [2-spiro[3H-benzimidazole-2,1'-cyclohexane]-5-ylidenepropanedinitrile] came in with an IC50 of 9.07 µM.
Still for that read-out and setting: the same measure for `COc1ccc(CCNc2ncnc3c2oc2ccccc23)cc1OC` [MLS000041708]: 2.27 µM; for `N#Cc1c(NC(=O)CSc2nc(N)cc(=O)[nH]2)sc2c1CCCCCC2` [2-[(6-amino-4-oxo-1H-pyrimidin-2-yl)sulfanyl]-N-(3-cyano-4,5,6,7,8,9-hexahydrocycloocta[b]thiophen-2-yl)acetamide]: 14.6 µM.
`CCOc1ccc(-c2noc(CCC(=O)O)n2)cc1` [3-(3-p-phenetyl-1,2,4-oxadiazol-5-yl)propionic acid] returned an IC50 of 8.46 µM.
In turn, `Cc1ccc(S(=O)(=O)Nc2ccc3ncccc3c2)cc1` [4-methyl-N-(6-quinolinyl)benzenesulfonamide] returned an IC50 under setting [1] of 12.4 µM.
`COc1ccc(-c2nc(-c3ccccc3)no2)c(OC)c1` [5-(2,4-dimethoxyphenyl)-3-phenyl-1,2,4-oxadiazole] yielded a 50% inhibitory concentration (IC50) of 2.82 µM.
As to `CCOc1ccc(C2=Nn3c(nnc3-c3ccccc3OC)SC2)cc1` [6-(4-ethoxyphenyl)-3-(2-methoxyphenyl)-7H-[1,2,4]triazolo[3,4-b][1,3,4]thiadiazine], inhibition was half-maximal at 0.39 µM (IC50).
On the same count and under the same terms, the figure for `CC(C)(C)c1ccc(-c2noc(CCC(N)=O)n2)cc1` [3-[3-(4-tert-butylphenyl)-1,2,4-oxadiazol-5-yl]propanamide] is 0.063 µM.
The same measure, in the same setting: the same measure for `CCN(C1CCCCC1)S(=O)(=O)c1ccc(S(=O)(=O)NCc2ccncc2)cc1` [4-N-cyclohexyl-4-N-ethyl-1-N-(pyridin-4-ylmethyl)benzene-1,4-disulfonamide]: 9.51 µM.
The compound `CCCOC(=O)c1[nH]c2c(c1C)C(=O)CC(c1cc(OC)c(OC)c(OC)c1)C2` (centres undefined) [MLS000116504] showed an IC50 under setting [1] of 11.5 µM.
In turn, `CCOc1ccc(S(=O)(=O)n2cnc3cc(C)c(C)cc32)cc1` [1-(4-Ethoxy-benzenesulfonyl)-5,6-dimethyl-1H-benzoimidazole] came in with an IC50 above 11 µM.
For `COc1ccc(-c2cc(C(F)(F)F)nc(S(C)(=O)=O)n2)cc1OC` [4-(3,4-dimethoxyphenyl)-2-methylsulfonyl-6-(trifluoromethyl)pyrimidine], the concentration for half-maximal inhibition (IC50) stood at 7.15 µM.

For the origin of these results see BindingDB's records for doi:10.7270/Q2PR7TCX (The Scripps Research Institute Molecular Screening Center, 2007).
